Assay results as given in patent EP4591884A1, “LIPID COMPOUND FOR NUCLEIC ACID DELIVERY, AND RELATED USE AND MEDICAMENT COMPRISING SAME” (Beijing Baishihekang Pharmaceutical Technology (Bsjpharma) …, priority 2022, dated 2024).

Key:
Assay in all cases: in vitro small nucleic acid delivery by lipid-nucleic acid mixture, cell uptake by flow cytometry
Type in all cases: cell-based, human
Details in all cases: lipid 1.25 ug/mL, fluorescently labeled PGY-ssRNA-26, final 100 nM, 9 h incubation, flow cytometry fluorescence
H460 cells = tested on: H460 cells
Method: (§1) Culture the human pancreatic acinar epithelial cancer cell line HPAC, human large cell lung cancer cell line H460, and human embryonic kidney cell line HEK293T (purchased from the Cell Resource Center, Institute of Basic Medicine, Chinese Academy of Medical Sciences) used in the experiments in a 37°C, 5%CO2 incubator. Culture the HPAC cells in DMEM/F12 medium, the H460 cells in RPMI-1640 medium, and the 293T cells in DMEM medium containing 10% fetal bovine serum and 1% antibiotics (penicillin 100 U/mL & streptomycin […]). Culture the cells to the logarithmic growth phase with a cell density of 6 × 10^5/1 mL medium/well; divide the cells into 12-well plates (1 mL medium/well), and incubate at 37°C overnight (12 h), and then conduct subsequent experiments.
(§2) Add 5 µL of nucleic acid and 95 µL of DEPC-treated water to a 2 mL glass tube, mix homogeneously, add a certain amount of lipid monomer, mix thoroughly, heat in a 90°C water bath for 15 min, and then cool naturally to obtain a mixture of nucleic acid and lipid.
(§3) 3. Detection of cell uptake of nucleic acids delivered by lipids inside cells by means of flow cytometry (CFlow) • 1) Main experimental instruments and equipment: 10 cm cell culture dishes, 12-well cell culture plates, pipettes, transfer tubes, optical microscope, flow cytometer CytoFLEX instrument (purchased from Beckman, USA) • 2) Main experimental reagents: Model establishment and transfection: artificially synthesized lipid monomers and nucleic acids as shown in the table • 3) Culture the human pancreatic acinar epithelial cancer cell line HPAC cells, human large cell lung cancer cell line H460 cells, and human embryonic kidney cell line HEK293T cells used in the experiment to the logarithmic growth phase, and then divide them into 12-well plates at a cell density of 6×10^5/mL culture medium/well; incubate the 12-well plates at 37°C overnight (12 h), and then conduct subsequent experiments. • 4) The experimental groups are as follows: • a) Blank group: refers to untreated cells, and this group serves as a blank control group. • b) Free uptake group: directly add 5 µL of fluorescently labeled nucleic acid solution (stock concentration 20 µM), and this group serves as the negative control group. • c) Lipid-nucleic acid mixture treatment group: add the mixture of lipids and fluorescently labeled nucleic acids prepared in step 2 to the cells, and mix homogeneously. The final concentration of nucleic acids is 100 nM. • 5) After incubating with cells for 9 h, wash the cells three times with PBS, resuspend the cells with PBS (self-prepared), and use a flow cytometer CytoFLEX instrument (purchased from Beckman, USA) to detect the fluorescence intensity of the cells in the sample wells.

HPAC cells = tested on: HPAC cells
Method: as §1, §2, §3

293T cells = tested on: 293T cells
Method: as §1, §2, §3

Compound | Lipid delivery group (1.25 ug/mL) (H460 cells) [%] | Lipid delivery group (1.25 ug/mL) (HPAC cells) [%] | Lipid delivery group (1.25 ug/mL) (293T cells) [%]
CCCCCCCCCCCCCCCCCCCCCCCCC/C=C/[C@@H](O)[C@@H](N)CO [Sphingosine (d30:1), (2S,3R,E)-2-aminotriacont-4-ene-1,3-diol] | 54.83 | 69.34 | 95.79
CCCCCCCCCCCCCCCCCCCCCCCC/C=C/[C@@H](O)[C@@H](N)CO [Sphingosine (d29:1), (2S,3R,E)-2-aminononacos-4-ene-1,3-diol] | 62.37 | 23.36 | 32.74
CCCCCCCCCCCCCCCCCCCCCCCCCCC[C@@H](O)[C@@H](N)CO [Sphingosine (d30:0), (2S,3R)-2-aminotriacontane-1,3-diol] | 78.84 | 93.63 | 83.38
CCCCCCCCCCCCCCCCCCCCCCCCCCCCC[C@@H](O)[C@@H](N)CO [Sphingosine (d32:0), (2S,3R)-2-aminodotriacontane-1,3-diol] | 46.19 | 70.16 | 34.02
CCCCCCCCCCCCCCCCCCCCC/C=C/[C@@H](O)[C@@H](N)CO [Sphingosine (d26:1), (2S,3R,E)-2-aminohexacos-4-ene-1,3-diol] | 85.87 | 96.03 | 87.97
CCCCCCCCCCCCCCCCCCCCCCCCCCCCCC/C=C/[C@@H](O)[C@@H](N)CO [Sphingosine (d35:1), (2S,3R,E)-2-aminopentatriacont-4-ene-1,3-diol] | 64.66 | 53.75 | 50.79
CCCCCCCCCCCCCCCCCCCCCCCCCC/C=C/[C@@H](O)[C@@H](N)CO [Sphingosine (d31:1), (2S,3R,E)-2-aminohentriacont-4-ene-1,3-diol] | 82.66 | 60.61 | 75.77
CCCCCCCCCCCCCCCCCCC[C@@H](O)[C@@H](N)CO [Sphingosine (d22:0), (2S,3R)-2-aminodocosane-1,3-diol] | 24.32 | 39.08 | 22.99
CCCCCCCCCCCCCCCCCCCCCCCCCCC/C=C/[C@@H](O)[C@@H](N)CO [Sphingosine (d32:1), (2S,3R,E)-2-aminodotriacont-4-ene-1,3-diol] | 62.18 | 87.38 | 86.77
CCCCCCCCCCCCCCCCCCCC/C=C/[C@@H](O)[C@@H](N)CO [Sphingosine (d25:1), (2S,3R,E)-2-aminopentacos-4-ene-1,3-diol] | 78.43 | 89.70 | 78.12
CCCCCCCCCCCCCCCCCCCCCCC/C=C/[C@@H](O)[C@@H](N)CO [Sphingosine (d28:1), (2S,3R,E)-2-aminooctacos-4-ene-1,3-diol] | 84.15 | 96.66 | 86.5
CCCCCCCCCCCCCCCCCCCCCCCCCCCCCCCCC[C@@H](O)[C@@H](N)CO [Sphingosine (d36:0), (2S,3R)-2-aminohexatriacontane-1,3-diol] | 62.71 | 58.22 | 40.66
CCCCCCCCCCCCCCCCCCCCCCCCCCCC[C@@H](O)[C@@H](N)CO [Sphingosine (d31:0), (2S,3R)-2-aminohentriacontane-1,3-diol] | 68.16 | 70.5 | 97.4
CCCCCCCCCCCCCCCCCCCCCCCCCCCCCCC[C@@H](O)[C@@H](N)CO [Sphingosine (d34:0), (2S,3R)-2-aminotetratriacontane-1,3-diol] | 24.56 | 0.55 | 5
CCCCCCCCCCCCCCCCCCCCCCCCCCCC/C=C/[C@@H](O)[C@@H](N)CO [Sphingosine (d33:1), (2S,3R,E)-2-aminotritriacont-4-ene-1,3-diol] | 67.01 | 45.88 | 40.07
CCCCCCCCCCCCCCCCCCCCCCCC[C@@H](O)[C@@H](N)CO [Sphingosine (d27:0), (2S,3R)-2-aminoheptacosane-1,3-diol] | 97.57 | 97.35 | 91.06
CCCCCCCCCCCCCCCCCCCCCCCCCCCCCC[C@@H](O)[C@@H](N)CO [Sphingosine (d33:0), (2S,3R)-2-aminotritriacontane-1,3-diol] | 72.21 | 2.48 | 61.39
CCCCCCCCCCCCCCCCCCCCC[C@@H](O)[C@@H](N)CO [Sphingosine (d24:0), (2S,3R)-2-aminotetracosane-1,3-diol] | 98.13 | 96.61 | 96.77
CCCCCCCCCCCCCCCCCCC/C=C/[C@@H](O)[C@@H](N)CO [Sphingosine (d24:1), (2S,3R,E)-2-aminotetracos-4-ene-1,3-diol] | 79.66 | 16.65 | 63.97
CCCCCCCCCCCCCCCCCCCCCCCCCCCCCCC/C=C/[C@@H](O)[C@@H](N)CO [Sphingosine (d36:1), (2S,3R,E)-2-aminohexatriacont-4-ene-1,3-diol] | 48.37 | 48.77 | 25.23
CCCCCCCCCCCCCCCCCCCCCCCCC[C@@H](O)[C@@H](N)CO [Sphingosine (d28:0), (2S,3R)-2-aminooctacosane-1,3-diol] | 98.52 | 94.40 | 96.93
CCCCCCCCCCCCCCCCCCCCCC/C=C/[C@@H](O)[C@@H](N)CO [Sphingosine (d27:1), (2S,3R,E)-2-aminoheptacos-4-ene-1,3-diol] | 95.74 | 99.42 | 92.77
CCCCCCCCCCCCCCCCCCCCCCC[C@@H](O)[C@@H](N)CO [Sphingosine (d26:0), (2S,3R)-2-aminohexacosane-1,3-diol] | 95.2 | 97.75 | 95.55
CCCCCCCCCCCCCCCCCCCCCCCCCCCCCCCC[C@@H](O)[C@@H](N)CO [Sphingosine (d35:0), (2S,3R)-2-aminopentatriacontane-1,3-diol] | 69.95 | 51.46 | 43.03
CCCCCCCCCCCCCCCCCCCCCCCCCC[C@@H](O)[C@@H](N)CO [Sphingosine (d29:0), (2S,3R)-2-aminononacosane-1,3-diol] | 65.81 | 83.57 | 72.18
CCCCCCCCCCCCCCCCCC/C=C/[C@@H](O)[C@@H](N)CO [Sphingosine (d23:1), (2S,3R,E)-2-aminotricos-4-ene-1,3-diol] | 44.11 | 7.93 | 34.51
CCCCCCCCCCCCCCCCCCCC[C@@H](O)[C@@H](N)CO [Sphingosine (d23:0), (2S,3R)-2-aminotricosane-1,3-diol] | 98.65 | 78.91 | 98.16
CCCCCCCCCCCCCCCCCCCCCC[C@@H](O)[C@@H](N)CO [Sphingosine (d25:0), (2S,3R)-2-aminopentacosane-1,3-diol] | 99.26 | 96.17 | 97.76
CCCCCCCCCCCCCCCCCCCCCCCCCCCCC/C=C/[C@@H](O)[C@@H](N)CO [Sphingosine (d34:1), (2S,3R,E)-2-aminotetratriacont-4-ene-1,3-diol] | 66.64 | 2.95 | 38.31
